# Columns and labels:
# bedstraw = assay: Test B pre/postemergence bedstraw; type: in vivo, Galium aparine
# In short: (§1)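 Response is a visual 0-to-10 score relative to untreated plants, where 0 means no effect and 10 means complete control, taken twelve to sixteen days after application. Treatments went onto soil at planting and onto foliage of 1- to 4-leaf plants, using a surfactant-containing non-phytotoxic solvent.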
# blackgrass = assay: Test B pre/postemergence blackgrass; type: in vivo, Alopecurus myosuroides
# In short: as §1
# surinam grass = assay: Test B pre/postemergence surinam grass; type: in vivo, Brachiaria decumbens
# In short: as §1
# cocklebur = assay: Test B pre/postemergence cocklebur; type: in vivo, Xanthium strumarium
# In short: as §1
# corn = assay: Test B pre/postemergence corn; type: in vivo, Zea mays
# In short: as §1
# crabgrass = assay: Test B pre/postemergence crabgrass; type: in vivo, Digitaria sanguinalis
# In short: as §1
# giant foxtail = assay: Test B pre/postemergence giant foxtail; type: in vivo, Setaria faberii
# In short: as §1
# morningglory = assay: Test B pre/postemergence morningglory; type: in vivo, Ipomoea hederacea
# In short: as §1
# rape = assay: Test B pre/postemergence rape; type: in vivo, Brassica napus
# In short: as §1
# soybean = assay: Test B pre/postemergence soybean; type: in vivo, Glycine max
# In short: as §1
# velvetleaf = assay: Test B pre/postemergence velvetleaf; type: in vivo, Abutilon theophrasti
# In short: as §1
# wheat = assay: Test B pre/postemergence wheat; type: in vivo, Triticum aestivum
# In short: as §1
# wild oat = assay: Test B pre/postemergence wild oat; type: in vivo, Avena fatua
# In short: as §1
# smallflower flatsedge = assay: Test B flood test smallflower flatsedge; type: in vivo, Cyperus difformis
# In short: (§2)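 Flood test on plants grown to the 2-leaf stage; treated plants kept in greenhouse twelve to sixteen days, then visually rated against controls on a 0 (no effect) to 10 (complete control) scale.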
# duck salad = assay: Test B flood test duck salad; type: in vivo, Heteranthera limosa
# In short: as §2
# bamyardgrass = assay: Test B flood test barnyardgrass; type: in vivo, Echinochloa crus-galli
# In short: as §2
# [1] = Preemergence, Rate 62 g/ha, scale of 0 to 10 where 0 is no effect and 10 is complete control
# [2] = Preemergence, Rate 125 g/ha, 0 is no effect, 10 is complete control
# [3] = Preemergence, Rate 250 g/ha, scale 0 to 10, 0 is no effect, 10 is complete control
# [4] = Preemergence, Rate 500 g/ha, scale 0 to 10 (0 no effect, 10 complete control)
# [5] = Rate 62 g/ha, Postemergence, scale of 0 to 10 where 0 is no effect and 10 is complete control
# [6] = Rate 125 g/ha, Postemergence, scale 0 to 10
# [7] = Rate 500 g/ha, Postemergence, scale 0 to 10
# [8] = Rate 62 g/ha, headed Pre-emergence (flood test species), scale 0 to 10 (0 no effect, 10 complete control)
# [9] = Rate 125 g/ha, Pre-emergence, flood test species, scale 0 to 10 where 0 is no effect and 10 is complete control
# [10] = Rate 250 g/ha, Pre-emergence, flood-test species, scale 0 to 10, 0 is no effect, 10 is complete control
# [11] = Rate 500 g/ha, headed Pre-emergence (flood test species), scale 0 to 10 (0 no effect, 10 complete control)
smiles,measurement,setting,value
CCN(Cc1ccncc1)C(=O)n1oc(=O)n(C(C)C)c1=O [Compound 189],Bedstraw plant response rating,bedstraw; [1],0
same,Bedstraw plant response rating (0 to 10 scale),bedstraw; [2],0
same,Bedstraw plant response rating,bedstraw; [3],0
same,Bedstraw plant response rating,bedstraw; [4],0
same,Bedstraw plant response rating,bedstraw; [5],0
same,Bedstraw plant response rating,bedstraw; [6],0
same,"Plant response rating (0 to 10; 0 is no effect, 10 is complete control), Bedstraw","bedstraw; Rate 250 g/ha, Postemergence",0
same,Bedstraw plant response rating,bedstraw; [7],0
same,Blackgrass plant response rating,blackgrass; [1],1
same,Blackgrass plant response rating (0 to 10 scale),blackgrass; [2],4
same,Blackgrass plant response rating,blackgrass; [3],4
same,Blackgrass plant response rating,blackgrass; [4],7
same,Blackgrass plant response rating,blackgrass; [5],0
same,Blackgrass plant response rating,blackgrass; [6],0
same,"Plant response rating (0 to 10; 0 is no effect, 10 is complete control), Blackgrass","blackgrass; Rate 250 g/ha, Postemergence",0
same,Blackgrass plant response rating,blackgrass; [7],0
same,B. signalgrass plant response rating,surinam grass; [1],3
same,B. signalgrass plant response rating,surinam grass; [3],3
same,B. signalgrass plant response rating,surinam grass; [4],6
same,B. signalgrass plant response rating,surinam grass; [5],0
same,B. signalgrass plant response rating,"surinam grass; Rate 125 g/ha, Postemergence, scale 0 (no effect) to 10 (complete control)",0
same,"Plant response rating, B. signalgrass","surinam grass; Rate 250 g/ha, Postemergence, scale 0 to 10, 0 is no effect, 10 is complete control",0
same,B. signalgrass plant response rating,"surinam grass; Rate 500 g/ha, Postemergence, scale 0 to 10, 0 no effect, 10 complete control",0
same,Cocklebur plant response rating (0 to 10 scale),cocklebur; [2],0
same,Cocklebur plant response rating,cocklebur; [3],0
same,Cocklebur plant response rating,cocklebur; [4],0
same,Cocklebur plant response rating,cocklebur; [5],0
same,Cocklebur plant response rating,cocklebur; [6],0
same,"Plant response rating (0 to 10; 0 is no effect, 10 is complete control), Cocklebur","cocklebur; Rate 250 g/ha, Postemergence",0
same,Cocklebur plant response rating,cocklebur; [7],0
same,Corn plant response rating,corn; [1],0
same,Corn plant response rating (0 to 10 scale),corn; [2],0
same,Corn plant response rating,corn; [3],0
same,Corn plant response rating,corn; [4],0
same,Corn plant response rating,corn; [5],0
same,Corn plant response rating,corn; [6],0
same,"Plant response rating (0 to 10; 0 is no effect, 10 is complete control), Corn","corn; Rate 250 g/ha, Postemergence",0
same,Corn plant response rating,corn; [7],0
same,Crabgrass plant response rating,crabgrass; [1],0
same,Crabgrass plant response rating (0 to 10 scale),crabgrass; [2],0
same,Crabgrass plant response rating,crabgrass; [3],0
same,Crabgrass plant response rating,crabgrass; [4],3
same,Crabgrass plant response rating,crabgrass; [5],0
same,Crabgrass plant response rating,crabgrass; [6],0
same,"Plant response rating (0 to 10; 0 is no effect, 10 is complete control), Crabgrass","crabgrass; Rate 250 g/ha, Postemergence",0
same,Crabgrass plant response rating,crabgrass; [7],0
same,Giant foxtail plant response rating,giant foxtail; [1],0
same,Giant foxtail plant response rating (0 to 10 scale),giant foxtail; [2],0
same,Giant foxtail plant response rating,giant foxtail; [3],3
same,Giant foxtail plant response rating,giant foxtail; [4],6
same,Giant foxtail plant response rating,giant foxtail; [5],0
same,Giant foxtail plant response rating,giant foxtail; [6],0
same,"Plant response rating (0 to 10; 0 is no effect, 10 is complete control), Giant foxtail","giant foxtail; Rate 250 g/ha, Postemergence",0
same,Giant foxtail plant response rating,giant foxtail; [7],0
same,Morningglory plant response rating,morningglory; [1],0
same,Morningglory plant response rating (0 to 10 scale),morningglory; [2],0
same,Morningglory plant response rating,morningglory; [3],0
same,Morningglory plant response rating,morningglory; [4],0
same,Morningglory plant response rating,morningglory; [5],0
same,Morningglory plant response rating,morningglory; [6],0
same,"Plant response rating (0 to 10; 0 is no effect, 10 is complete control), Morningglory","morningglory; Rate 250 g/ha, Postemergence",0
same,Morningglory plant response rating,morningglory; [7],0
same,Rape plant response rating,rape; [1],0
same,Rape plant response rating (0 to 10 scale),rape; [2],0
same,Rape plant response rating,rape; [3],0
same,Rape plant response rating,rape; [4],0
same,Rape plant response rating,rape; [5],0
same,Rape plant response rating,rape; [6],0
same,"Plant response rating (0 to 10; 0 is no effect, 10 is complete control), Rape","rape; Rate 250 g/ha, Postemergence",0
same,Rape plant response rating,rape; [7],0
same,Soybean plant response rating,soybean; [1],0
same,Soybean plant response rating (0 to 10 scale),soybean; [2],0
same,Soybean plant response rating,soybean; [3],0
same,Soybean plant response rating,soybean; [4],0
same,Soybean plant response rating,soybean; [5],0
same,Soybean plant response rating,soybean; [6],0
same,"Plant response rating (0 to 10; 0 is no effect, 10 is complete control), Soybean","soybean; Rate 250 g/ha, Postemergence",0
same,Soybean plant response rating,soybean; [7],0
same,Velvetleaf plant response rating,velvetleaf; [1],0
same,Velvetleaf plant response rating,velvetleaf; [3],0
same,Velvetleaf plant response rating,velvetleaf; [4],0
same,Velvetleaf plant response rating,velvetleaf; [5],0
same,Velvetleaf plant response rating,velvetleaf; [6],0
same,"Plant response rating (0 to 10; 0 is no effect, 10 is complete control), Velvetleaf","velvetleaf; Rate 250 g/ha, Postemergence",0
same,Wheat plant response rating,wheat; [1],0
same,Wheat plant response rating,wheat; [3],0
same,Wheat plant response rating,wheat; [4],2
same,Wheat plant response rating,wheat; [5],0
same,Wheat plant response rating,wheat; [6],0
same,"Plant response rating (0 to 10; 0 is no effect, 10 is complete control), Wheat","wheat; Rate 250 g/ha, Postemergence",0
same,Wild oats plant response rating,wild oat; [1],0
same,Wild oats plant response rating,wild oat; [3],3
same,Wild oats plant response rating,wild oat; [4],3
same,Wild oats plant response rating,wild oat; [5],0
same,Wild oats plant response rating,wild oat; [6],0
same,"Plant response rating (0 to 10; 0 is no effect, 10 is complete control), Wild oats","wild oat; Rate 250 g/ha, Postemergence",0
same,S. Flatsedge plant response rating,smallflower flatsedge; [8],0
same,S. Flatsedge plant response rating,smallflower flatsedge; [9],0
same,S. Flatsedge plant response rating,smallflower flatsedge; [10],0
same,S. Flatsedge plant response rating,"smallflower flatsedge; Rate 500 g/ha, Pre-emergence, flood test species, scale 0 to 10 (0 no effect, 10 complete control)",0
same,Ducksalad plant response rating,duck salad; [8],0
same,Ducksalad plant response rating,duck salad; [9],0
same,Ducksalad plant response rating,duck salad; [10],0
same,"Plant response rating, Ducksalad",duck salad; [11],0
same,Barnyardgrass plant response rating,bamyardgrass; [8],0
same,Barnyardgrass plant response rating,bamyardgrass; [9],0
same,Barnyardgrass plant response rating,bamyardgrass; [10],0
same,"Plant response rating, Barnyardgrass",bamyardgrass; [11],0
